From patent publication US20130029970A1 (priority 2009, published 2013)
Read-outs that look alike come from different tables or passages of the source.

Tests used:
[1] = target: T1, recombinant human cannabinoid receptor CB2 (Homo sapiens, UniProt P34972); experiment: Cannabinoid receptor radioligand binding assay, [3H]-CP 55,940 displacement, hCB2
T1 construct: (cDNA clone) CNR0200000
Outline: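 Receptor source: membrane pellet (40,000×g) from transfected cells, stored in HEPES pH 7.4/MgCl2/EDTA/sucrose buffer.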

human CB2 (hCB2) = target: T2, human CB2 (hCB2) (Homo sapiens, UniProt P34972); experiment: 35S GTPγS binding assay, hCB2 agonist; assay type: biochemical
T2 construct: (cDNA clone) CNR0200000
Outline: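 Agonist-stimulated [35S]GTPγS (0.1 nM) binding measured by scintillation proximity after 90 min at room temperature. Reaction buffer: 50 mM HEPES pH 7.4, 100 mM NaCl, 5 mM MgCl2, 0.001% saponin plus 20 uM GDP. Membranes (5 μg) came from transfected cells expressing hCB2 cDNA (pcDNA3.1+ vector).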

[2] = GTPγS agonist, HEK-293 membranes, read-out: hCB2 EC50 (GTPyS ag)

T1 sequence (P34972 whole entry): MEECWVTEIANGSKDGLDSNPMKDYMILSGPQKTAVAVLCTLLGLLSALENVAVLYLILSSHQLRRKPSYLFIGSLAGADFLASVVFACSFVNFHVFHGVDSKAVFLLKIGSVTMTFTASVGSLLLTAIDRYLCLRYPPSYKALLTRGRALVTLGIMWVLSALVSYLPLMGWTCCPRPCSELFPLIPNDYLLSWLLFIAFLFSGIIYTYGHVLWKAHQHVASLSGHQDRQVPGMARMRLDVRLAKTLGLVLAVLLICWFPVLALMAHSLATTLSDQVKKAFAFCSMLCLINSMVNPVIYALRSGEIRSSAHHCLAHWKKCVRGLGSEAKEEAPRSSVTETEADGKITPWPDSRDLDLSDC
T2 sequence (P34972 whole entry): as above

With `COc1ccc(C(=O)c2cc3cc(C)n(CCCCNS(C)(=O)=O)c3s2)cc1` [Compound 102, N-(4-(2-(4-Methoxybenzoyl)-5-methyl-6H-thieno[2,3-b]pyrrol-6-yl)butyl)methanesulfonamide] the IC50 [1] was < 100 nM and the EC50 (human CB2 (hCB2); [2]) was < 100 nM.

For `COc1ccc(C(=O)c2cc3c(Cl)c(C)n(CCN4CCOCC4)c3s2)cc1` [Compound 140, (4-chloro-5-methyl-6-(2-morpholinoethyl)-6H-thieno[2,3-b]pyrrol-2-yl)(4-methoxyphenyl)methanone], the IC50 [1] was 100 to 1000 nM and the EC50 (human CB2 (hCB2)) was < 100 nM.

For `COc1ccc(C(=O)c2cc3cc(C)n(CCN4CCOCC4)c3s2)cc1` [Compound 36, (4-methoxyphenyl)(5-methyl-6-(2-morpholinoethyl)-6H-thieno[2,3-b]pyrrol-2-yl)methanone], the IC50 [1] was < 100 nM and the EC50 (human CB2 (hCB2)) was < 100 nM.

`COc1ccc(C(=O)c2cc3cc(C)n(CCCNS(N)(=O)=O)c3s2)cc1` [Compound 105] gave an IC50 [1] of 1000 to 10000 nM and an EC50 (human CB2 (hCB2)) of 100 to 1000 nM.

For `COc1ccc(C(=O)c2cc3cc(C)n(CCN4CCCC4)c3s2)cc1` [Compound 83, (4-Methoxyphenyl)(5-methyl-6-(2-(pyrrolidin-1-yl)ethyl)-6H-thieno[2,3-b]pyrrol-2-yl)methanone], the IC50 [1] was 100 to 1000 nM and the EC50 (human CB2 (hCB2)) was 100 to 1000 nM.

For `CCOc1ccc(C(=O)c2cc3cc(C)n(CCN4CCOCC4)c3s2)cn1` [Compound 150, (6-Ethoxypyridin-3-yl)(5-methyl-6-(2-morpholinoethyl)-6H-thieno[2,3-b]pyrrol-2-yl)methanone], the IC50 [1] was 1000 to 10000 nM and the EC50 (human CB2 (hCB2)) was 100 to 1000 nM.

For `COc1ccc(C(=O)c2cc3cc(C)n(Cc4ccccc4)c3s2)c(Cl)c1` [Compound 114, (6-Benzyl-5-methyl-6H-thieno[2,3-b]pyrrol-2-yl)(2-chloro-4-methoxyphenyl)methanone], the IC50 [1] was < 100 nM and the EC50 (human CB2 (hCB2); [2]) was < 100 nM.

`CCOC(=O)CCn1c(C)cc2cc(C(=O)c3ccc(OC)cc3)sc21` [Compound 72, Ethyl 3-(2-(4-methoxybenzoyl)-5-methyl-6H-thieno[2,3-b]pyrrol-6-yl)propanoate] was tested, and the IC50 [1] was 1000 to 10000 nM and the EC50 (human CB2 (hCB2)) was 100 to 1000 nM.

Compound `Cc1cc2cc(C(=O)c3ccc(OC(F)(F)F)cc3)sc2n1CCN1CCOCC1` [Compound 65, (5-Methyl-6-(2-morpholinoethyl)-6H-thieno[2,3-b]pyrrol-2-yl)(4-(trifluoromethoxy)phenyl)methanone] has an IC50 [1] of 100 to 1000 nM and an EC50 (human CB2 (hCB2)) of 100 to 1000 nM.

For `COc1ccc(C(=O)c2cc3cc(C)n(CCN4CCOCC4)c3s2)c(F)c1` [Compound 68, (2-Fluoro-4-methoxyphenyl)(5-methyl-6-(2-morpholinoethyl)-6H-thieno[2,3-b]pyrrol-2-yl)methanone], the IC50 [1] was < 100 nM and the EC50 (human CB2 (hCB2)) was < 100 nM.

With `COc1ccc(Cn2c(C)cc3cc(C(=O)c4ccc(OC)cc4)sc32)cc1` [Compound 103, (6-(4-Methoxybenzyl)-5-methyl-6H-thieno[2,3-b]pyrrol-2-yl)(4-methoxyphenyl)methanone] the IC50 [1] was 100 to 1000 nM and the EC50 (human CB2 (hCB2)) was 100 to 1000 nM.

Compound `C=Cn1c(C)cc2cc(C(=O)c3cccc(Cl)c3Cl)sc21` [Comp 29] has an IC50 [1] of 1000 to 10000 nM and an EC50 (human CB2 (hCB2)) of 100 to 1000 nM.

In the case of `COc1ccc(C(=O)c2cc3cc(C)n(CCCNS(C)(=O)=O)c3s2)c(C)c1` [Compound 96, N-(3-(2-(4-Methoxy-2-methylbenzoyl)-5-methyl-6H-thieno[2,3-b]pyrrol-6-yl)propyl)methanesulfonamide], the IC50 [1] is reported as < 100 nM and the EC50 (human CB2 (hCB2)) is reported as < 100 nM.

`Cc1cc2cc(C(=O)c3ccc4c(c3)OCO4)sc2n1CCN1CCOCC1` [Compound 106, Benzo[d][1,3]dioxol-5-yl(5-methyl-6-(2-morpholinoethyl)-6H-thieno[2,3-b]pyrrol-2-yl)methanone] was tested, and the IC50 [1] was 100 to 1000 nM and the EC50 (human CB2 (hCB2)) was < 100 nM.

With `COc1cc(F)c(C(=O)c2cc3cc(C)n(CCN4CCOCC4)c3s2)c(F)c1` [Compound 127, (2,6-difluoro-4-methoxyphenyl)(5-methyl-6-(2-morpholinoethyl)-6H-thieno[2,3-b]pyrrol-2-yl)methanone] the IC50 [1] was < 100 nM and the EC50 (human CB2 (hCB2)) was < 100 nM.

`COc1ccc(C(=O)c2cc3cc(C)n(CCN4CCCCC4)c3s2)c(Cl)c1` [Compound 90, (2-Chloro-4-methoxyphenyl)(5-methyl-6-(2-(piperidin-1-yl)ethyl)-6H-thieno[2,3-b]pyrrol-2-yl)methanone] was tested, and the IC50 [1] was < 100 nM and the EC50 (human CB2 (hCB2)) was < 100 nM.

With `CCOc1ccc(C(=O)c2cc3cc(C)n(CCN4CCOCC4)c3s2)c(F)c1` [Compound 89, (4-Ethoxy-2-fluorophenyl)(5-methyl-6-(2-morpholinoethyl)-6H-thieno[2,3-b]pyrrol-2-yl)methanone] the IC50 [1] was 100 to 1000 nM and the EC50 (human CB2 (hCB2)) was < 100 nM.

For `Cc1cc2cc(C(=O)c3cccc(Cl)c3Cl)sc2n1CCN1CCCC1` [Compound 28, (2,3-Dichlorophenyl)(5-methyl-6-(2-(pyrrolidin-1-yl)ethyl)-6H-thieno[2,3-b]pyrrol-2-yl)methanone], the IC50 [1] was < 100 nM and the EC50 (human CB2 (hCB2)) was < 100 nM.

For `Cc1cc2cc(C(=O)c3cccnc3Cl)sc2n1CCN1CCOCC1` [Compound 17, (2-Chloropyridin-3-yl)(5-methyl-6-(2-morpholinoethyl)-6H-thieno[2,3-b]pyrrol-2-yl)methanone], the IC50 [1] was 100 to 1000 nM and the EC50 (human CB2 (hCB2)) was 100 to 1000 nM.

In the case of `COc1ccc(C(=O)c2cc3cc(C)n(CCN4CCCCC4)c3s2)c(O)c1` [Compound 99, (2-Hydroxy-4-methoxyphenyl)(5-methyl-6-(2-(piperidin-1-yl)ethyl)-6H-thieno[2,3-b]pyrrol-2-yl)methanone], the IC50 [1] is reported as 100 to 1000 nM and the EC50 (human CB2 (hCB2)) is reported as < 100 nM.

`Cc1cc2cc(C(=O)c3cccc(F)c3F)sc2n1CCN1CCOCC1` [Compound 8, (2,3-Difluorophenyl)(5-methyl-6-(2-morpholinoethyl)-6H-thieno[2,3-b]pyrrol-2-yl)methanone] showed an IC50 [1] of 100 to 1000 nM and an EC50 (human CB2 (hCB2)) of 100 to 1000 nM.

With `COc1ccc(C(=O)c2cc3cc(C)n(CCN4CCCC4)c3s2)c(F)c1` [Compound 92, (2-Fluoro-4-methoxyphenyl)(5-methyl-6-(2-(pyrrolidin-1-yl)ethyl)-6H-thieno[2,3-b]pyrrol-2-yl)methanone] the IC50 [1] was 100 to 1000 nM and the EC50 (human CB2 (hCB2)) was < 100 nM.

For `COc1ccc(C(=O)c2cc3cc(C)n(CCN4CCCCC4)c3s2)cn1` [Compound 117, (6-Methoxypyridin-3-yl)(5-methyl-6-(2-(piperidin-1-yl)ethyl)-6H-thieno[2,3-b]pyrrol-2-yl)methanone], the IC50 [1] was 100 to 1000 nM and the EC50 (human CB2 (hCB2)) was < 100 nM.

With `COc1ccc(C(=S)c2cc3cc(C)n(CCN4CCOCC4)c3s2)cc1` [Compound 104, (4-methoxyphenyl)(5-methyl-6-(2-morpholinoethyl)-6H-thieno[2,3-b]pyrrol-2-yl)methanethione] the IC50 [1] was 1000 to 10000 nM and the EC50 (human CB2 (hCB2)) was 100 to 1000 nM.

`Cc1ccc(C(=O)c2cc3cc(C)n(CCN4CCOCC4)c3s2)cn1` [Compound 130, (5-methyl-6-(2-morpholinoethyl)-6H-thieno[2,3-b]pyrrol-2-yl)(6-methylpyridin-3-yl)methanone] gave an IC50 [1] of 1000 to 10000 nM and an EC50 (human CB2 (hCB2)) of 100 to 1000 nM.

In the case of `Cc1cc2cc(C(=O)c3cccc(Cl)c3Cl)sc2n1S(=O)(=O)N(C)C` [Compound 41, 2-(2,3-Dichlorobenzoyl)-N,N,5-trimethyl-6H-thieno[2,3-b]pyrrole-6-sulfonamide], the IC50 [1] is reported as < 100 nM and the EC50 (human CB2 (hCB2)) is reported as < 100 nM.

In the case of `Cc1cc2cc(C(=O)c3ccc(F)cc3Cl)sc2n1CCN1CCOCC1` [Compound 64, (2-Chloro-4-fluorophenyl)(5-methyl-6-(2-morpholinoethyl)-6H-thieno[2,3-b]pyrrol-2-yl)methanone], the IC50 [1] is reported as < 100 nM and the EC50 (human CB2 (hCB2)) is reported as < 100 nM.

`COc1ccc(C(C)(O)c2cc3cc(C)n(CCN4CCOCC4)c3s2)cc1` (stereo not shown) [Compound 101, 1-(4-methoxyphenyl)-1-(5-methyl-6-(2-morpholinoethyl)-6H-thieno[2,3-b]pyrrol-2-yl)ethanol] was tested, and the IC50 [1] was 100 to 1000 nM and the EC50 (human CB2 (hCB2); [2]) was < 100 nM.

With `COc1ccc(C(=O)c2cc3cc(C)n(CCN4CCSCC4)c3s2)cc1` [Compound 110, (4-Methoxyphenyl)(5-methyl-6-(2-thiomorpholinoethyl)-6H-thieno[2,3-b]pyrrol-2-yl)methanone] the IC50 [1] was < 100 nM and the EC50 (human CB2 (hCB2)) was < 100 nM.

`COc1ccc(C(=O)c2cc3cc(C)n(CCN4CCCC4)c3s2)c(Cl)c1` [Compound 93, (2-Chloro-4-methoxyphenyl)(5-methyl-6-(2-(pyrrolidin-1-yl)ethyl)-6H-thieno[2,3-b]pyrrol-2-yl)methanone] was tested, and the IC50 [1] was < 100 nM and the EC50 (human CB2 (hCB2)) was < 100 nM.

For `COc1ccc(C(=O)c2cc3cc(C)n(CCCNC(C)(C)C)c3s2)cc1` [Compound 108, (6-(3-(tert-Butylamino)propyl)-5-methyl-6H-thieno[2,3-b]pyrrol-2-yl)(4-methoxyphenyl)methanone], the IC50 [1] was > 10000 nM and the EC50 (human CB2 (hCB2)) was 100 to 1000 nM.

For `Cc1cc2cc(C(=O)c3cccc4c3OCC4)sc2n1CCN1CCOCC1` [Compound 11, (2,3-Dihydrobenzofuran-7-yl)(5-methyl-6-(2-morpholinoethyl)-6H-thieno[2,3-b]pyrrol-2-yl)methanone], the IC50 [1] was 100 to 1000 nM and the EC50 (human CB2 (hCB2)) was < 100 nM.

With `CCc1ccc(C(=O)c2cc3cc(C)n(CCN4CCOCC4)c3s2)cc1` [Compound 122, (4-Ethylphenyl)(5-methyl-6-(2-morpholinoethyl)-6H-thieno[2,3-b]pyrrol-2-yl)methanone] the IC50 [1] was < 100 nM and the EC50 (human CB2 (hCB2)) was < 100 nM.

`CNc1ccc(C(=O)c2cc3cc(C)n(CCN4CCOCC4)c3s2)cc1` [Compound 134, (5-methyl-6-(2-morpholinoethyl)-6H-thieno[2,3-b]pyrrol-2-yl)(4-(methylamino)phenyl)methanone] gave an IC50 [1] of 100 to 1000 nM and an EC50 (human CB2 (hCB2)) of 100 to 1000 nM.

`Cc1cc2cc(C(=O)c3cccc(Cl)n3)sc2n1CCN1CCOCC1` [Compound 123, (6-Chloropyridin-2-yl)(5-methyl-6-(2-morpholinoethyl)-6H-thieno[2,3-b]pyrrol-2-yl)methanone] was tested, and the IC50 [1] was 100 to 1000 nM and the EC50 (human CB2 (hCB2)) was 100 to 1000 nM.
